For seven compounds, AC50 results are on record in ChEMBL document CHEMBL5291721, “A preclinical secondary pharmacology resource illuminates target-adverse drug reaction associations of marketed drugs” (Nat Commun, 2023).

For assay [1], the target named is 3',5'-cyclic-AMP phosphodiesterase 4D (Homo sapiens, UniProt Q08499). The class given is functional.
The target of the next assay is Melanocortin receptor 4 (Homo sapiens, UniProt P32245).
Assay [2] addresses T1, Prostaglandin G/H synthase 1 (Homo sapiens, UniProt P23219). The class given is functional.
In assay [3] the target is Gamma-aminobutyric acid receptor subunit alpha-1 (Rattus norvegicus, UniProt P62813). Format: functional.
Sequence of Gamma-aminobutyric acid receptor subunit alpha-1 (P62813 whole entry): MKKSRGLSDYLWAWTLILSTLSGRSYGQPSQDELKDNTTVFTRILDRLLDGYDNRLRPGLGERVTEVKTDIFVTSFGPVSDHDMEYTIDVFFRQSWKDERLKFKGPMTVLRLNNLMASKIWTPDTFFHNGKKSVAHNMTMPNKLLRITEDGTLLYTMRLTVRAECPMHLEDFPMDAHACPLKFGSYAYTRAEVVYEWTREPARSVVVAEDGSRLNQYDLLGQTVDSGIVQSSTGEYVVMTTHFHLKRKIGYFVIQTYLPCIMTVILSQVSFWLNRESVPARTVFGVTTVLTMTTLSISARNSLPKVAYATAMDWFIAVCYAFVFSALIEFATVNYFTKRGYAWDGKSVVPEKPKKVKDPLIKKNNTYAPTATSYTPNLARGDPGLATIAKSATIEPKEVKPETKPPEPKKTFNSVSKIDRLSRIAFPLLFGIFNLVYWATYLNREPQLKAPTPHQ
In assay [4] the target is Delta-type opioid receptor (Homo sapiens, UniProt P41143).
Sequence of Delta-type opioid receptor (P41143 whole entry): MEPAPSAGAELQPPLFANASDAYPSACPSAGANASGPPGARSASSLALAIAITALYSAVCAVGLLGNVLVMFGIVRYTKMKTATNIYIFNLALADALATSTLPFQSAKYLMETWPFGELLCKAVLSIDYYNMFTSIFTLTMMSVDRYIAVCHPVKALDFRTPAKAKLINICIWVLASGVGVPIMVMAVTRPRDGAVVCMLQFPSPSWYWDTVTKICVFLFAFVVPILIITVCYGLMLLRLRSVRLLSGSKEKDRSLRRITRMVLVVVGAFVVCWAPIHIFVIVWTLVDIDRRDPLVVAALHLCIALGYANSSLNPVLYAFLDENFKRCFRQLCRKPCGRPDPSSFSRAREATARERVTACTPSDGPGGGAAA
Assay [5] concerns the target T1, Prostaglandin G/H synthase 1. Format: functional. The source holds these as a separate data set.
Assay [6] deals with T2, D(1A) dopamine receptor (Homo sapiens, UniProt P21728).
T2 sequence (P21728 whole entry): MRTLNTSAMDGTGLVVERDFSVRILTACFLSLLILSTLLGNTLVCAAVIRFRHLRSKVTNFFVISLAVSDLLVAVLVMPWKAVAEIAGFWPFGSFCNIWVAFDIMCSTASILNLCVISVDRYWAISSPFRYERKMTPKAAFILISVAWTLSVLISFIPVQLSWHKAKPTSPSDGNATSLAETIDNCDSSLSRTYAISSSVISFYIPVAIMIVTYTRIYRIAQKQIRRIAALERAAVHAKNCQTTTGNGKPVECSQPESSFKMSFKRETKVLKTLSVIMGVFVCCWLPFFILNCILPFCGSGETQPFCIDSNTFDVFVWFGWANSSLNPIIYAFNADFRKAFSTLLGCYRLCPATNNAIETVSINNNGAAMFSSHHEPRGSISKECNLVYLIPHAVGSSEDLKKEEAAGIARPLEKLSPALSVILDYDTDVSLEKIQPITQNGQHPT
The target of assay [7] is Beta-2 adrenergic receptor (Homo sapiens, UniProt P07550).
Sequence of Beta-2 adrenergic receptor (P07550 whole entry): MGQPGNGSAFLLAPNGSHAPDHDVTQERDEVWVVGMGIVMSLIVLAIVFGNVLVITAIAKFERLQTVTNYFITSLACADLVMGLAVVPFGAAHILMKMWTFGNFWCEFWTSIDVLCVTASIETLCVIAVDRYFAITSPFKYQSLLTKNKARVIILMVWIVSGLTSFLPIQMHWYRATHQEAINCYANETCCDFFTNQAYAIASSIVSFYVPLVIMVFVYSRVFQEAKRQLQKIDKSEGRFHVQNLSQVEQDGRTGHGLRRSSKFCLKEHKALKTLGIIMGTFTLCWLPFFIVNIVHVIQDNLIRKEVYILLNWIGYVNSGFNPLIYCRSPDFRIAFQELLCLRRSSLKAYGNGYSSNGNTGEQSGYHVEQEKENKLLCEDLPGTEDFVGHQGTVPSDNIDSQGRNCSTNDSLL
The target in assay [8] is Voltage-dependent L-type calcium channel subunit alpha-1C (Rattus norvegicus, UniProt P22002). The class given is functional.
Assay [9] concerns the target T3, Muscarinic acetylcholine receptor M2 (Homo sapiens, UniProt P08172).
T3 sequence (P08172 whole entry): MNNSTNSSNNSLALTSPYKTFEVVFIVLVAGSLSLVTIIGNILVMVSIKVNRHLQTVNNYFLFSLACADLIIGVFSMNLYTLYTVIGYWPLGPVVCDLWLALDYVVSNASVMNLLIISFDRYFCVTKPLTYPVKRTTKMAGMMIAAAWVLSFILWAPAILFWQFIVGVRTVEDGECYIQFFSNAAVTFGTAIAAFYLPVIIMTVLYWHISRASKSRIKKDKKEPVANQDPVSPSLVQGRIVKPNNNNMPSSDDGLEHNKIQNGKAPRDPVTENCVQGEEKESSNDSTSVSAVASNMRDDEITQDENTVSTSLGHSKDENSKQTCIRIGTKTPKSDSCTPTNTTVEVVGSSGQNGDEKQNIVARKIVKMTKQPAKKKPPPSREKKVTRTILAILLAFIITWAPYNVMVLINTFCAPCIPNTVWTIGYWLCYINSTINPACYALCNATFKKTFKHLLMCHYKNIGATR
Format: functional, cell-based.

In assay [10] the target is T2, D(1A) dopamine receptor. The class given is functional, cell-based.
In assay [11] the target is T4, 5-hydroxytryptamine receptor 1A (Homo sapiens, UniProt P08908).
T4 sequence (P08908 whole entry): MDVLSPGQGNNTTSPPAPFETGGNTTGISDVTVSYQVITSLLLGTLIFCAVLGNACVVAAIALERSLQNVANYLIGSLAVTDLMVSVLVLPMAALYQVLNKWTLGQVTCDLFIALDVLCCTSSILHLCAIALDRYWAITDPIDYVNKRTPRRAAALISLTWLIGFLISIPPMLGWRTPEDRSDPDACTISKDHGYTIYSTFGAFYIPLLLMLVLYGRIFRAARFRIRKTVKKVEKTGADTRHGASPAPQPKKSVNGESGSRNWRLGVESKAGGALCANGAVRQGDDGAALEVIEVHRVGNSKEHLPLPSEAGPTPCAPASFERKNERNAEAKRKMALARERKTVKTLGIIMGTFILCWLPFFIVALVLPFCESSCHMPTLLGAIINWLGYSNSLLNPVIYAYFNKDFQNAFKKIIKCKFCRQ
Format: functional, cell-based.

The target of the next assay is T5, Progesterone receptor (Homo sapiens, UniProt P06401).
T5 sequence (P06401 whole entry): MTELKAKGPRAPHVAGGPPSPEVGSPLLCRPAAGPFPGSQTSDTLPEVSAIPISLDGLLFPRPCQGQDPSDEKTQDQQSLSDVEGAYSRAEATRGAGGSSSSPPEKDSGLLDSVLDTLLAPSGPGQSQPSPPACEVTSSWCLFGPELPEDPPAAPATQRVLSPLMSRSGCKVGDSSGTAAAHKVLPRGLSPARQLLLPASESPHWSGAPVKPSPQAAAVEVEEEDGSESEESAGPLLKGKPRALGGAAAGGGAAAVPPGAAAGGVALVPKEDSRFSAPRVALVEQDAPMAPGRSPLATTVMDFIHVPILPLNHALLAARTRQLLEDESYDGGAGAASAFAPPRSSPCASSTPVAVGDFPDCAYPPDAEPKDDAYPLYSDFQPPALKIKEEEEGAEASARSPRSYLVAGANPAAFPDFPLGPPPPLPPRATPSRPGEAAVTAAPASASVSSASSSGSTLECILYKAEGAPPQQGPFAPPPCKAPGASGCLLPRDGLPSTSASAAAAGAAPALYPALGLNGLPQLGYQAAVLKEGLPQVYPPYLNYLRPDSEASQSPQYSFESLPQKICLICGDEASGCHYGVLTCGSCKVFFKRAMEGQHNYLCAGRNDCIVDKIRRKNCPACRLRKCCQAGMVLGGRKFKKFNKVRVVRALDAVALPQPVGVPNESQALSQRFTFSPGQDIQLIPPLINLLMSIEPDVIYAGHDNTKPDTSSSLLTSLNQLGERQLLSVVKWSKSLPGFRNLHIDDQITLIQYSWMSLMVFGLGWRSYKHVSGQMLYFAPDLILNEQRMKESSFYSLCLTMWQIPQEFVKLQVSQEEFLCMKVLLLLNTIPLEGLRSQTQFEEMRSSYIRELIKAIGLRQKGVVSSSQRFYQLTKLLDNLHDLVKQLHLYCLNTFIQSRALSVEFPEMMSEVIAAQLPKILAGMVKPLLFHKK
Format: functional.

Assay [12] has as its target T6, Alpha-2A adrenergic receptor (Homo sapiens, UniProt P08913).
T6 sequence (P08913 whole entry): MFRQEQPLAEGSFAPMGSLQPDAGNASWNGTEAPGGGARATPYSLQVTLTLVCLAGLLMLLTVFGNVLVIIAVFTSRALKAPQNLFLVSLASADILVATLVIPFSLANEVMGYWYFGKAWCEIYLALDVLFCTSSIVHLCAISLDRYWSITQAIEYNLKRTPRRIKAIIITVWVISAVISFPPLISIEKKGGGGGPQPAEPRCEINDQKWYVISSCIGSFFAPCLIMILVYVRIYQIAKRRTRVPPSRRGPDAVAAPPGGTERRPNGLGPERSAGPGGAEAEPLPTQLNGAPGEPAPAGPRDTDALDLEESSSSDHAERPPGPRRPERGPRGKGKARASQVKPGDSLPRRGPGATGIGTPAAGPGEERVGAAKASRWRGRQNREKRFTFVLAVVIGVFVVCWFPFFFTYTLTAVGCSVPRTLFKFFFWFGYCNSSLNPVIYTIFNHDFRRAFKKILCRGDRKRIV
Format: functional, cell-based.

Broadly, the AC50 is the concentration at which the activity in the assay is half-maximal.
Note: assay procedure not described here.

T1 sequence (P23219 whole entry): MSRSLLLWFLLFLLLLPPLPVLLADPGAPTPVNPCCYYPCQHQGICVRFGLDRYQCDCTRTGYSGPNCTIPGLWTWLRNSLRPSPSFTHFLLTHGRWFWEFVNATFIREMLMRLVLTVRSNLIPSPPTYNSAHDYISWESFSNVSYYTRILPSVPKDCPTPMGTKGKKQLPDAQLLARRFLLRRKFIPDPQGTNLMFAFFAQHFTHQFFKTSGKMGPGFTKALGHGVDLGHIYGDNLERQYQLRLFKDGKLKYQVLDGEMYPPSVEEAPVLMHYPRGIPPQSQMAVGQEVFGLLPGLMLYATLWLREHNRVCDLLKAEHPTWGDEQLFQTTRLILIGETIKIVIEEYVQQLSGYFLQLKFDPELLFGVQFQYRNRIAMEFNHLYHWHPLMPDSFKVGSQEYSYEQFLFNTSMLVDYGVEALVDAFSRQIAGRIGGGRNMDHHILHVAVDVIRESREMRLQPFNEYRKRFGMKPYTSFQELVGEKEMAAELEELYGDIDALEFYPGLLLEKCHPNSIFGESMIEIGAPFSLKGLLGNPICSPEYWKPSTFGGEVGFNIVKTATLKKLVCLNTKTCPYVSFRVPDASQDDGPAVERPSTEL
Sequence of 3',5'-cyclic-AMP phosphodiesterase 4D (Q08499 whole entry): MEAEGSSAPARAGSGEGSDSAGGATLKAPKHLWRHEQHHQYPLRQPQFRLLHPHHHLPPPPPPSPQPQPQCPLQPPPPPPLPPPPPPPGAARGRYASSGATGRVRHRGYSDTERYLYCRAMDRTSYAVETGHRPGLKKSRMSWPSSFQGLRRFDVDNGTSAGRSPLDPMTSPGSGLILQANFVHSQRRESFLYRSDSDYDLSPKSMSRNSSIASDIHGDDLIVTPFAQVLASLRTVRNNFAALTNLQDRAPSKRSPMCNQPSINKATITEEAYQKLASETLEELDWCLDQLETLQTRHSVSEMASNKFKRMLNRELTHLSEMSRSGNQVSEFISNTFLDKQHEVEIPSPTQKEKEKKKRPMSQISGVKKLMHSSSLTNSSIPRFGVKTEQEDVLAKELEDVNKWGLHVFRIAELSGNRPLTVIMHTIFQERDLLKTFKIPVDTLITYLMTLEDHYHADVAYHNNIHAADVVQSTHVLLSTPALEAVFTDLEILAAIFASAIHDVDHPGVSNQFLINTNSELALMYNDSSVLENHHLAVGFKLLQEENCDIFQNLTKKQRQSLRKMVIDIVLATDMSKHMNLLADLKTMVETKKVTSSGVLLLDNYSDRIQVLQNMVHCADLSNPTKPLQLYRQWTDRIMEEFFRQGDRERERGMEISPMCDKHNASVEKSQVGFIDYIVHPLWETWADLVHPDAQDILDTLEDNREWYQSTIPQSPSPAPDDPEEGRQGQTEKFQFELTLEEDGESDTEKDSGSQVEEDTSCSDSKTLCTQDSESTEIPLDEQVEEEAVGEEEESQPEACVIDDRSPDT
Sequence of Melanocortin receptor 4 (P32245 whole entry): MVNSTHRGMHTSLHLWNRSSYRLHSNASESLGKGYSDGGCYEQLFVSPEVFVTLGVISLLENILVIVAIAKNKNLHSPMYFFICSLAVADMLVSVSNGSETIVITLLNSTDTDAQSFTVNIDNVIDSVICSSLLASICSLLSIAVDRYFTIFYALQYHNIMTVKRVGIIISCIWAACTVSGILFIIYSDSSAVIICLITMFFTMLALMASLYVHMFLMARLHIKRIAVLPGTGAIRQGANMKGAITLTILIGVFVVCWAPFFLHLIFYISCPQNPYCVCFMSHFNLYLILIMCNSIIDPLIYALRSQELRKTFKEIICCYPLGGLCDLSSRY

Consider `O=C(/C=C/c1cccc(S(=O)(=O)Nc2ccccc2)c1)NO` [BELINOSTAT], for which the half-maximal activity concentration (AC50) in assay [1] was 7.1 µM; on Melanocortin receptor 4 it was over 30 µM; in assay [2] it was 5.61 µM; in assay [3] it was over 10 µM; in [4], over 30 µM; in assay [5], 6.9 µM. Also, the half-maximal activity concentration (AC50) is over 30 µM on D(1A) dopamine receptor [6], over 10 µM in assay [7] and over 10 µM in assay [8].
In the case of `CC(O)(CS(=O)(=O)c1ccc(F)cc1)C(=O)Nc1ccc(C#N)c(C(F)(F)F)c1` (stereo unspecified) [BICALUTAMIDE], the concentration at half-maximal activity (AC50) is over 30 µM in [1]; over 10 µM in assay [9]; over 30 µM on Melanocortin receptor 4; over 30 µM in [2]; over 10 µM in assay [3]; over 10 µM on D(1A) dopamine receptor [10]. Also, the half-maximal activity concentration (AC50) in assay [11] was over 10 µM; in [4], over 10 µM; on Progesterone receptor, over 30 µM; in assay [5], over 30 µM; at D(1A) dopamine receptor [6] it was over 30 µM; in assay [7], over 30 µM. In addition, the concentration at half-maximal activity (AC50) in [8] and in assay [12] was over 10 µM in each case.
For the compound `CC(=O)O[C@]1(C(C)=O)CC[C@H]2[C@@H]3C=C(Cl)C4=CC(=O)[C@@H]5C[C@@H]5[C@]4(C)[C@H]3CC[C@@]21C` [CYPROTERONE ACETATE], the AC50 was over 30 µM in [1]; over 30 µM on Melanocortin receptor 4; over 30 µM in assay [2]; over 10 µM in assay [3]; over 30 µM in assay [4]; over 30 µM in [5]. In addition, the half-maximal activity concentration (AC50) was over 30 µM on D(1A) dopamine receptor [6], over 10 µM in [7] and over 10 µM in [8].
For the compound `C[C@@H]1C[C@H]2[C@@H]3C[C@H](F)C4=CC(=O)C=C[C@]4(C)[C@@]3(F)[C@@H](O)C[C@]2(C)[C@@]1(OC(=O)c1ccco1)C(=O)SCF` [FLUTICASONE FUROATE], the AC50 in [1] is over 30 µM; in assay [9], over 10 µM; at Melanocortin receptor 4 it was over 10 µM; in assay [2], 27.7 µM; in assay [3], over 10 µM; at D(1A) dopamine receptor [10], over 10 µM. Moreover, the AC50 in assay [11] is over 10 µM; in [4] it was over 30 µM; in [5], 9.89 µM; on D(1A) dopamine receptor [6], over 30 µM; in assay [7] it was over 10 µM; in assay [8], over 10 µM. Moreover, the half-maximal activity concentration (AC50) in [12] is over 10 µM.
Regarding `O=C1c2ccccc2C(=O)C1c1ccccc1` [PHENINDIONE], the AC50 in assay [1] was over 30 µM; in assay [9], over 10 µM; on Melanocortin receptor 4, over 10 µM; in assay [3], over 10 µM; at D(1A) dopamine receptor [10], over 10 µM; in assay [11], over 30 µM. In addition, the AC50 was over 30 µM in assay [4]; over 10 µM at Progesterone receptor; over 10 µM in assay [7]; over 10 µM in assay [8]; over 10 µM in [12].
As for `COC(=O)[C@H]1[C@H]2C[C@@H]3c4[nH]c5cc(OC)ccc5c4CCN3C[C@H]2C[C@@H](OC(=O)c2cc(OC)c(OC)c(OC)c2)[C@@H]1OC` [RESERPINE], the half-maximal activity concentration (AC50) is over 30 µM in assay [1]; over 10 µM in assay [9]; over 10 µM at Melanocortin receptor 4; over 10 µM in [2]; over 10 µM in assay [3]; over 10 µM on D(1A) dopamine receptor [10]. The AC50 in assay [11] was over 10 µM; in assay [4] it was over 30 µM; at Progesterone receptor, over 10 µM; in assay [5], over 30 µM; on D(1A) dopamine receptor [6], over 30 µM; in assay [7], over 10 µM. The AC50 in assay [8] was 8.83 µM; in [12], over 10 µM.
In the case of `C[C@]12C=CC(=O)C=C1CC[C@@H]1[C@@H]2CC[C@]2(C)OC(=O)CC[C@@H]12` [TESTOLACTONE], the AC50 in assay [1] is over 30 µM; in assay [9] it was over 10 µM; at Melanocortin receptor 4, over 10 µM; in assay [3], over 10 µM; on D(1A) dopamine receptor [10] it was over 10 µM; in assay [11], over 10 µM. Moreover, the AC50 in assay [4] is over 30 µM; at Progesterone receptor, over 10 µM; in [7], over 10 µM; in [8] it was over 10 µM; in assay [12] it was over 30 µM.
